20 molecules from patent publication US11026942B2, “Agent for preventing and/or treating Alzheimer's disease” (KYOTO UNIVERSITY, priority 2015, dated 2021) can be followed below.

Common to all, as to type: cell-based, human
In one test the test system is Aβ42/40 ratio. The test is described as follows: Aβ42/40 ratio in FAD1 iPS cell-derived nerve cells (primary/secondary screening, dose dependency). The note with it: secondary screening. The source says:
(§1) To perform induction from iPS cells to the cerebral cortex nerve early and with high reproducibility, iPS cells introduced with human Neurogenin 2 gene (NGN2) linked to doxycycline-inducible promoter by using PiggyBac were used (FIG. 1a, FIG. 1b, FIG. 4a and FIG. 4b). IPS cells prepared from 4 patients with familial Alzheimer's disease (FAD), 2 patients with sporadic Alzheimer's disease (SAD) and 4 healthy individuals (HC) were used. The iPS cells were established by the method described in Okita K et al., Nature.
(§2) Structural formulas (those in the form of salt or halide are also described as free form) and the general names of the candidate compounds are shown in Table 1.
(§3) To further study reproducibility of the candidate drugs obtained by the primary screening, secondary screening was conducted. In addition to Aβ40, Aβ42, Aβ42/40 ratio, Aβ38, Aβ43, sAPPα, sAPPβ were also studied and each numerical value was obtained.

The subject of the next test is sAPPα. The test is described as follows: sAPPα in FAD1 iPS cell-derived nerve cells (secondary screening). On the set-up: scale not given here. The note with it: secondary screening, FAD1 iPS cell-derived nerve cells. The protocol:
as §3

The test system of the next test is Aβ38. The test is described as follows: Aβ38 in FAD1 iPS cell-derived nerve cells (secondary screening). Set-up: scale not given here. The protocol: as §3
The next test concerns Aβ42. The test is described as follows: Aβ42 in FAD1 iPS cell-derived nerve cells (primary/secondary screening, dose dependency). Particulars: secondary screening, FAD1 iPS cell-derived nerve cells, numerical value (Aβ change rate).
Source text: as §1, §2, §3

A further test deals with sAPPβ. The experiment in a line: sAPPβ in FAD1 iPS cell-derived nerve cells (secondary screening). On the set-up: sAPPβ: scale not given here. The note with it: secondary screening, FAD1 iPS cell-derived nerve cells. The procedure: as §3
A further test deals with Aβ43. The experiment in a line: Aβ43 in FAD1 iPS cell-derived nerve cells (secondary screening). Set-up: scale not given here. The procedure: as §3

SMILES strings stand for the structures.

As to `O=C1c2ccccc2C(=O)C1c1ccc(Cl)cc1` [compound 127, CHLORINDIONE], the “Ratio Aβ42/40” value with Aβ42/40 ratio was found to be 0.85. Moreover, in the test with sAPPα, the sAPPα was 0.74. The molecule further came in with an Aβ38 in the test with Aβ38 of 0.92. In the test on Aβ42, the Aβ42 turned out to be 0.79. Further, the sAPPβ in the test on sAPPβ was 0.67. Moreover, the Aβ43 in the test with Aβ43 turned out to be 0.87.

As for `C[C@@H]1O[C@@H](OC[C@H]2O[C@@H](Oc3c(-c4ccc(OCCO)c(OCCO)c4)oc4cc(OCCO)cc(O)c4c3=O)[C@H](O)[C@@H](O)[C@@H]2O)[C@H](O)[C@H](O)[C@H]1O` [compound 110, TROXERUTIN], the “Ratio Aβ42/40” value in the test with Aβ42/40 ratio was 0.93. The molecule also gave a sAPPα with sAPPα of 0.74. Also, the Aβ38 in the test with Aβ38 is recorded as 0.97. In the test on Aβ42, the Aβ42 is on record as 0.88. In the test on sAPPβ, this molecule showed a sAPPβ of 0.51. The same molecule returned an Aβ43 in the test on Aβ43 of 0.95.

`COc1cc2c(cc1OC)[C@@]13CCN4CC5=CCO[C@H]6CC(=O)N2[C@H]1[C@H]6[C@H]5C[C@H]43` [compound 106, BRUCINE]: in the test on Aβ42/40 ratio, the “Ratio Aβ42/40” value was determined as 1.04. This molecule also gave a sAPPα with sAPPα of 0.84. The Aβ38 with Aβ38 amounted to 1.13. Also, the Aβ42 in the test on Aβ42 was 0.98. The molecule further yielded a sAPPβ in the test with sAPPβ of 0.85. This molecule showed an Aβ43 in the test with Aβ43 of 0.87.

On to `Oc1ccc(Cl)cc1Cc1cc(Cl)ccc1O` [compound 94, DICHLOROPHENE], for which the “Ratio Aβ42/40” value in the test on Aβ42/40 ratio was determined as 0.89. Also, in the test on sAPPα, the sAPPα is listed as 0.78. In the test on Aβ38, the Aβ38 was found to be 0.94. Moreover, the Aβ42 in the test with Aβ42 came to 0.79. The sAPPβ in the test on sAPPβ was found to be 0.85. The molecule also registered an Aβ43 with Aβ43 of 0.87.

For `Cc1cccc(O)c1` [compound 89, CRESOL], the “Ratio Aβ42/40” value in the test on Aβ42/40 ratio was 0.91. The same molecule displayed a sAPPα in the test on sAPPα of 0.71. Also, the Aβ38 with Aβ38 was found to be 0.93. This molecule also gave an Aβ42 in the test on Aβ42 of 0.81. Moreover, the sAPPβ in the test with sAPPβ is on record as 0.58. Also, in the test with Aβ43, the Aβ43 was 0.89.

As for `CCCCOc1cc(C(=O)NCCN(CC)CC)c2ccccc2n1` [compound 76, DIBUCAINE], in the test on Aβ42/40 ratio, the “Ratio Aβ42/40” value is 0.94. Also, the sAPPα with sAPPα amounted to 0.77. The Aβ38 with Aβ38 is listed as 0.97. The Aβ42 with Aβ42 is listed as 0.9. This molecule returned a sAPPβ in the test with sAPPβ of 0.77. In the test with Aβ43, the Aβ43 is reported as 0.98.

For the molecule `C/N=C(\NC#N)NCCSCc1nc[nH]c1C` [compound 79, CIMETIDINE], the “Ratio Aβ42/40” value in the test with Aβ42/40 ratio is 1.04. Further, the sAPPα in the test with sAPPα is on record as 0.87. The Aβ38 with Aβ38 is 1.03. In the test with Aβ42, this molecule returned an Aβ42 of 0.98. Moreover, the sAPPβ with sAPPβ came to 0.88. This molecule displayed an Aβ43 in the test on Aβ43 of 0.92.

In the case of `CCN(CCO)CCCC(C)Nc1ccnc2cc(Cl)ccc12` (stereo not drawn) [compound 72, HYDROXYCHLOROQUINE], the “Ratio Aβ42/40” value in the test on Aβ42/40 ratio came to 1.01. Moreover, the sAPPα in the test on sAPPα stood at 0.85. In the test with Aβ38, this molecule displayed an Aβ38 of 1.08. The molecule also had an Aβ42 with Aβ42 of 0.9. In addition, the sAPPβ with sAPPβ came to 0.72. Moreover, the Aβ43 in the test on Aβ43 is recorded as 0.87.

For `CCOc1ccc(NC(=O)CC(C)O)cc1` (stereo not drawn) [compound 70, BUCETIN], in the test on Aβ42/40 ratio, the “Ratio Aβ42/40” value was determined as 0.88. For the same molecule, the sAPPα in the test with sAPPα worked out at 0.75. Also, the Aβ38 in the test with Aβ38 came to 1.02. Further, the Aβ42 with Aβ42 amounted to 0.82. The molecule also returned a sAPPβ with sAPPβ of 0.75. For the same molecule, the Aβ43 in the test on Aβ43 was determined as 0.85.

Take `c1cnc(N2CCN(Cc3ccc4c(c3)OCO4)CC2)nc1` [compound 36, PIRIBEDIL]: in the test with Aβ42/40 ratio, the “Ratio Aβ42/40” value is recorded as 0.83. In the test with sAPPα, this molecule gave a sAPPα of 0.92. This molecule returned an Aβ38 with Aβ38 of 1.11. In the test with Aβ42, the Aβ42 was 0.87. The same molecule returned a sAPPβ in the test on sAPPβ of 0.82. In the test on Aβ43, this molecule came in with an Aβ43 of 1.09.

Regarding `C#C[C@]1(O)CC[C@H]2[C@@H]3CCC4=Cc5oncc5C[C@]4(C)[C@H]3CC[C@@]21C` [compound 102, DANAZOL], in the test with Aβ42/40 ratio, the “Ratio Aβ42/40” value was 1.04. For the same molecule, the sAPPα in the test on sAPPα is given as 0.79. For the same molecule, the Aβ38 in the test with Aβ38 amounted to 1.02. This molecule displayed an Aβ42 with Aβ42 of 0.93. This molecule showed a sAPPβ with sAPPβ of 0.81. This molecule yielded an Aβ43 with Aβ43 of 1.07.

`CN(C)CCN(Cc1ccc(Cl)cc1)c1ccccn1` [compound 129, CHLOROPYRAMINE]: the “Ratio Aβ42/40” value in the test with Aβ42/40 ratio came to 0.81. Also, the sAPPα with sAPPα is recorded as 0.87. Also, the Aβ38 in the test with Aβ38 came out at 0.96. Besides, in the test with Aβ42, the Aβ42 is reported as 0.83. Besides, in the test with sAPPβ, the sAPPβ was 0.86. The molecule also showed an Aβ43 in the test on Aβ43 of 0.89.

Consider `C=CC1=C(C(=O)O)N2C(=O)[C@@H](NC(=O)/C(=N\O)c3csc(N)n3)[C@H]2SC1` [compound 63], for which, in the test on Aβ42/40 ratio, the “Ratio Aβ42/40” value is 0.87. Further, the sAPPα in the test on sAPPα is 0.82. The molecule also came in with an Aβ38 in the test with Aβ38 of 0.95. Besides, the Aβ42 with Aβ42 turned out to be 0.79. Further, the sAPPβ in the test with sAPPβ is 1.01. Moreover, the Aβ43 with Aβ43 came to 0.9.

As to `CCCCOC(=O)c1ccc(N)cc1` [compound 58, BUTAMBEN], the “Ratio Aβ42/40” value with Aβ42/40 ratio is given as 1.03. The sAPPα in the test with sAPPα came out at 0.79. For the same molecule, in the test with Aβ38, the Aβ38 is 1.08. Besides, the Aβ42 with Aβ42 was found to be 0.95. Further, the sAPPβ in the test with sAPPβ was 0.76. The same molecule came in with an Aβ43 with Aβ43 of 0.95.

With `CN(C/C=C/C#CC(C)(C)C)Cc1cccc2ccccc12` [compound 5, TERBINAFINE], the “Ratio Aβ42/40” value in the test on Aβ42/40 ratio is reported as 0.96. Besides, the sAPPα in the test with sAPPα was 0.98. Moreover, the Aβ38 in the test with Aβ38 stood at 1.06. Further, in the test with Aβ42, the Aβ42 is reported as 0.94. This molecule also gave a sAPPβ in the test on sAPPβ of 1.06. Further, in the test with Aβ43, the Aβ43 was 0.94.

On to `CN1C(=O)CCS(=O)(=O)C1c1ccc(Cl)cc1` (stereo not drawn) [compound 128, CHLORMEZANONE], for which, in the test with Aβ42/40 ratio, the “Ratio Aβ42/40” value was determined as 0.78. The sAPPα in the test with sAPPα was 0.85. Also, the Aβ38 in the test on Aβ38 stood at 1.05. The Aβ42 in the test with Aβ42 was determined as 0.86. Besides, the sAPPβ with sAPPβ is given as 0.72. In the test on Aβ43, this molecule returned an Aβ43 of 0.85.

For `CC[C@H](C)C(=O)O[C@H]1C[C@@H](C)C=C2C=C[C@H](C)[C@H](CC[C@@H]3C[C@@H](O)CC(=O)O3)[C@H]21` [compound 46, LOVASTATIN], the “Ratio Aβ42/40” value with Aβ42/40 ratio was 0.88. Further, in the test with sAPPα, the sAPPα was determined as 1.01. The molecule further had an Aβ38 in the test with Aβ38 of 1.17. The same molecule gave an Aβ42 in the test with Aβ42 of 0.98. Besides, the sAPPβ with sAPPβ came out at 1.06. The same molecule had an Aβ43 with Aβ43 of 1.09.

Consider `CCc1cccc2c3c([nH]c12)C(CC)(CC(=O)O)OCC3` (stereo not drawn) [compound 26, ETODOLAC], for which the “Ratio Aβ42/40” value in the test with Aβ42/40 ratio stood at 1.13. Further, the sAPPα in the test with sAPPα is recorded as 0.99. In the test with Aβ38, the Aβ38 amounted to 1.11. Besides, in the test with Aβ42, the Aβ42 came out at 0.99. This molecule gave a sAPPβ in the test with sAPPβ of 0.98. In the test with Aβ43, this molecule returned an Aβ43 of 1.55.

For the molecule `CCn1cc(C(=O)O)c(=O)c2cnc(N3CCCC3)nc21` [compound 69, PIROMIDIC ACID], the “Ratio Aβ42/40” value in the test with Aβ42/40 ratio is 0.86. In addition, the sAPPα with sAPPα was determined as 0.86. This molecule showed an Aβ38 in the test on Aβ38 of 1.01. The molecule also gave an Aβ42 in the test on Aβ42 of 0.78. In the test with sAPPβ, the sAPPβ is reported as 0.69. The Aβ43 with Aβ43 is reported as 0.79.

As to `CCCCCCCCCCCCCCCCCCCCCCO` [compound 111, DOCOSANOL], the “Ratio Aβ42/40” value in the test with Aβ42/40 ratio turned out to be 0.9. In the test on sAPPα, this molecule displayed a sAPPα of 0.79. Moreover, the Aβ38 with Aβ38 was determined as 1.03. In the test on Aβ42, the Aβ42 came to 0.86. Further, the sAPPβ in the test with sAPPβ turned out to be 0.83. Also, the Aβ43 in the test with Aβ43 turned out to be 0.83.
